The source of these data is patent publication US20110160303A1, “N-ALKYLCARBONYL-AMINO ACID ESTER AND N-ALKYLCARBONYL-AMINO LACTONE COMPOUNDS AND THEIR USE” (Edward Tak WEI, priority 2005, published 2011).

SMILES strings stand for the structures. “Also recorded” adds a separate entry of the source. Where only a bound is given, the exact number is not on record here.

One series concerns asthma. Put plainly: Study 10: adult-onset asthma, throat irritation and cough. In kind it is in vivo, human. As to the method: A person had adult-onset asthma for 20 years. Triggers for attacks were tobacco smoke, dust, and changes in air temperature. They used Foradil® (formoterol fumarate) and Asmanex® (mometasone fuorate) twice a day to control their asthma, and monitored their pulmonary function with a portable device for measuring peak expiratory flow. They had daily episodes of both productive and non-productive cough. In 5 trials, when they felt throat irritation and a desire to cough, placement of 1 to 3 mg of (R)-2-[((1R,2S,5R)-2-isopropyl-5-methyl-cyclohexanecarbonyl)-amino]-propionic acid ethyl ester) provided rapid relief and was described as soothing and removed “tightness” in the chest. Peak expiratory flow improved from 320 L/min to 370 L/min. In 3 episodes where the test substance was administered in the midst of a productive cough spell, no significant effects were observed and the subject said that the applied compound had been expectorated. The subjective response to the long-acting NACE compound was definitely favourable. The subject remarked that the best time to use the NACE compound was after inhaling the crystalline Foradil® because this inhaled drug irritated their throat. Menthol lozenges were not effective for their airway discomfort because they only had mild anti-irritant actions and the sugar content of the lozenges interfered with their appetite for food.

For the next series, the system named is skin above the upper lip. Briefly: Cooling sensation on facial skin, ointment applied to skin above the upper lip. More on the design: key to refreshing cooling and absence of skin irritation or eye irritation (“perfect cool”): (*) denotes compounds with refreshing cooling and absence of skin irritation or eye irritation after facial skin or periorbital applications; a “perfect cool.”. It is filed as in vivo, human. The settings on record: for Duration of Action On-Off (minutes): On (onset): 40 mM (~1% wt/vol) Aquaphor ointment, 40 to 70 mg, time to reach 2 units of coolness; for Duration of Action On-Off (minutes): duration (offset minus onset) / Duration of Action On-Off (minutes): Off (offset): 40 mM Aquaphor ointment; for Duration of Action On-Off (minutes): Off (offset): time when coolness drops below 2 units. An excerpt: A reliable place for topical application is the skin above the upper lip (above the vermilion border of the lips), on the philtrum, lateral to the philtrum until the nasolabial folds, and on the lower nostrils (subnasale). This part of the face is known to be densely innervated with cold receptors, second only to the surfaces of the eyeball and anogenitalia. A second location is on or below the malar eminence (cheekbone). The skin above the cheekbone is thicker than above the lips, and therefore has a higher threshold for activation. At both loci, tingling, cool and cold sensations in the skin may be experienced and rated for time of onset and intensity.
The intensity of the subjective skin sensation is rated as 0, 1, 2 or 3 with: 0 as no change; 1 as slight coolness, cold, or tingling; 2 as clear-cut signal of coolness, cold, or tingling; and 3 as robust cooling or cold. The intervals for recording sensations are 5 to 10 minutes, until two successive zeroes are obtained. The results (shown in FIGS. 1 and 2) are averaged values of 4 to 6 separate trials in the same individual. The data are plotted using SigmaPlot® (Systat Software, Point Richmond Calif.) and a smoothing function with a negative exponential was used for analysis and statistical fit of the results. Confirmatory trials of cooling action of the long-acting NACE compounds were obtained in 2 to 4 individuals but not quantified for some because of the large number of chemicals that were evaluated.
The onset of drug action is taken as the time to reach 2 units of coolness intensity, and offset of drug action is the time when coolness intensity drops below 2, after previously surpassing 2 units. The duration of cooling action is defined as the offset time minus the onset time. […] The quality of the sensation is noted, for example, as pure refreshing coolness, or if the sensation is accompanied by irritation (stinging or burning). The quality of the sensation is not rated for intensity.
For bioassay on the skin, approximately 30 mg was stirred and dissolved in 3 g of warm liquid Aquaphor® ointment to a yield a 40 mM (˜1% wt/vol) ointment. The exact amount was adjusted so that the molar equivalent was about 35 to 40 mM. After cooling, 40 to 70 mg of the solid ointment was placed on the tip of a plastic stick and applied to the skin above the upper lip, on the philtrum, and lateral to the philtrum, up to the nasolabial folds, of test subjects and the onset and duration of cooling sensations noted.
The intensity of the subjective skin sensation was rated as 0, 1, 2 or 3 with: 0 as no change; 1 as slight coolness, cold, or tingling; 2 as clear signal of coolness, cold, or tingling; and 3 as robust cooling or cold. The intervals for recording sensations were 5 to 10 minutes, until two successive zeroes were obtained. The results (shown in FIGS. 1 and 2) are averaged values of 4 to 6 separate trials in the same individual. The data are plotted using SigmaPlot® (Systat Software, Point Richmond, Calif., USA) and a smoothing function with a negative exponential was used for analysis and statistical fit of the results.
The onset of drug action was taken as the time to reach 2 units of coolness intensity, and offset of drug action was the time when coolness intensity drops below 2, after previously surpassing 2 units. The duration of cooling action was defined as the offset time minus the onset time. […] The quality of the sensation was also noted: such as pure refreshing coolness, or if the sensation was accompanied by irritation (stinging or burning). The quality of the sensation was not rated for intensity.
Test compounds were singly applied to the skin above the upper lips at a 40 to 70 mg dose of a 1% wt/vol ointment.

Another series deals with oral cavity. Briefly: Oral cavity test, substance placed on dorsal surface of the tongue. It is filed as in vivo, human. The settings on record: dose of 1 to 2 mg, normal subjects. As to the method:
The subject is instructed to close and hold the substance in the mouth for at least 10 seconds and not to swallow. The description of sensations is then recorded at 5 minute intervals.
The compounds of Formula (1) and (2) are white crystalline solids at room temperatures. These compounds were tested as such, or mixed 1:1 with powdered or granulated sugar. The test substances were applied at 1 to 5 mg on the mid-point of the dorsal surface of the tongue using a metal spatula or a plastic applicator. After depositing the test substance on the tongue, the subject was instructed to keep the mouth closed and allow the fluids of the mouth to inter-mix with the test substance and to distribute it to the back of the mouth (oropharynx). The presence and duration of subjective sensations from the mouth was then noted.
In normal subjects, the effects of the D-Ala methyl and ethyl ester compounds falling within Formula (1) ((R)-2-[((1R,2S,5R)-2-isopropyl-5-methyl-cyclohexanecarbonyl)-amino]-propionic acid methyl or ethyl ester)) were examined. Three doses of 1, 2 and 4 mg per application were examined and compared to a similar dose of the L-Ala methyl or ester analog ((S)-2-[((1R,2S,5R)-2-isopropyl-5-methyl-cyclohexanecarbonyl)-amino]-propionic acid methyl or ethyl ester). At the 2 or 4 mg dose, all compounds produced pleasant and robust cooling sensations on the tongue, extending down to the back of throat, and lasted for about 30 minutes and longer. The onset effect was usually within 30 seconds of application.

In a further series the test system is face. Briefly: Study 3: towelette used to wipe the face. In kind it is in vivo, human. As to the method: 2-Isopropyl-5-methyl-cyclohexanecarbonyl D-alanine methyl ester was dissolved in warm 10% propylene-glycol/90% distilled water solution to give a concentration of either 0.1 or 0.5% wt/vol (1 or 5 mg/mL). Six to seven milliliters of these solutions were then applied with a pipette onto a paper napkin (Luncheon Napkins, Kirkland Signature brand from Costco, Inc.) The napkin was 1-ply with a 30.4×29.5 cm dimension. Each napkin was then hermetically sealed in a plastic envelope (Foodsaver by Tilia). On two separate occasions involving golfing trips to Los Angeles, Calif., USA, where air temperatures exceeded […] (90° F.), these towelettes were used to wipe the face. Pleasant cooling sensations were obtained that lasted for about 10 minute for the 0.1% concentration towelette and about 60 minutes for the 0.5% towelette.

The test system of a further series is periorbital area. Put plainly: Study 4: 1% ointment applied bilaterally to the periorbital area. It is filed as in vivo, human. The text has this: A 1% preparation of 2-isopropyl-5-methyl-cyclohexanecarbonyl D-alanine methyl ester in Aquaphor® ointment was applied bilaterally to the periorbital area of four individuals. […] This alerting effect lasted for about one hour. This experiment was then repeated three days later in the evening with the same individuals whose occupations required daylong activities before a computer screen. Again, application of the ointment about the periorbital area was reported to relieve fatigue, enhance visual acuity, and to increase attention span and focus. Sensations of refreshment and improved mood were also noted.

The test system of series [1] is irritated skin (acneiform dermatitis treated with Tazorac). Put plainly: Study 5: ointment on skin irritated by Tazorac. In kind it is in vivo, human. Conditions: 1.5% in Aquaphor. As to the method:
A person was treated with Tazorac® (tazarotene topical gel) for acneiform dermatitis on their cheeks. After using these medications for several days, they noted redness, itching, and uncomfortable burning sensations on the skin where these medications had been placed. A 1.5% preparation of 2-isopropyl-5-methyl-cyclohexanecarbonyl α-alanine methyl ester in Aquaphor® ointment was then applied to the sites of irritation. Sensations of coolness on the skin were noted within 5 minutes and lasting for an average of 30 minutes. The discomfort of the irritated skin was abated within five minutes and the subject felt better.

A further series deals with T1, TRP-M8 (Homo sapiens, UniProt Q7Z2W7).
T1 construct: expressed in transfected cells
The settings on record: cited from earlier work.

Series [2] in a line: Octanol/water partition coefficient. In kind it is physicochemical. The method, then:
The octanol/water partition coefficients (given in log P units) for a number of compounds were determined and are shown in Table 7, together with the threshold for cooling on the tongue tested at 40 mM. […] A longer duration of action was not precisely matched with log P values.

A further series concerns tongue. Put plainly: Threshold for cooling on the tongue. In kind it is in vivo, human. Conditions: threshold for cooling on the tongue. As to the method:
Watson et al. (U.S. Pat. No. 4,178,459) tested the properties of N-substituted p-menthane carboxamides on volunteers by putting filter paper (1×1 cm), impregnated with a known amount of compound, onto the dorsal surface of the tongue of the test subject. After 30 seconds, the subject was required to report presence or absence of a cooling effect. […] The average threshold of (−)-menthol for 6 subjects was 0.25 μg, but there was a 100-fold variation in individual sensitivity. As noted above, coolness signals detected from the dorsal surface of the tongue may be confounded by gustatory, olfactory, and other variables, as well as by dilution from saliva. The octanol/water partition coefficients (given in log P units) for a number of compounds were determined and are shown in Table 7, together with the threshold for cooling on the tongue tested at 40 mM. […] A longer duration of action was not precisely matched with log P values.

[3] abbreviates: 1% in Aquaphor, periorbital, four individuals.

T1 sequence (Q7Z2W7 whole entry, species assumed): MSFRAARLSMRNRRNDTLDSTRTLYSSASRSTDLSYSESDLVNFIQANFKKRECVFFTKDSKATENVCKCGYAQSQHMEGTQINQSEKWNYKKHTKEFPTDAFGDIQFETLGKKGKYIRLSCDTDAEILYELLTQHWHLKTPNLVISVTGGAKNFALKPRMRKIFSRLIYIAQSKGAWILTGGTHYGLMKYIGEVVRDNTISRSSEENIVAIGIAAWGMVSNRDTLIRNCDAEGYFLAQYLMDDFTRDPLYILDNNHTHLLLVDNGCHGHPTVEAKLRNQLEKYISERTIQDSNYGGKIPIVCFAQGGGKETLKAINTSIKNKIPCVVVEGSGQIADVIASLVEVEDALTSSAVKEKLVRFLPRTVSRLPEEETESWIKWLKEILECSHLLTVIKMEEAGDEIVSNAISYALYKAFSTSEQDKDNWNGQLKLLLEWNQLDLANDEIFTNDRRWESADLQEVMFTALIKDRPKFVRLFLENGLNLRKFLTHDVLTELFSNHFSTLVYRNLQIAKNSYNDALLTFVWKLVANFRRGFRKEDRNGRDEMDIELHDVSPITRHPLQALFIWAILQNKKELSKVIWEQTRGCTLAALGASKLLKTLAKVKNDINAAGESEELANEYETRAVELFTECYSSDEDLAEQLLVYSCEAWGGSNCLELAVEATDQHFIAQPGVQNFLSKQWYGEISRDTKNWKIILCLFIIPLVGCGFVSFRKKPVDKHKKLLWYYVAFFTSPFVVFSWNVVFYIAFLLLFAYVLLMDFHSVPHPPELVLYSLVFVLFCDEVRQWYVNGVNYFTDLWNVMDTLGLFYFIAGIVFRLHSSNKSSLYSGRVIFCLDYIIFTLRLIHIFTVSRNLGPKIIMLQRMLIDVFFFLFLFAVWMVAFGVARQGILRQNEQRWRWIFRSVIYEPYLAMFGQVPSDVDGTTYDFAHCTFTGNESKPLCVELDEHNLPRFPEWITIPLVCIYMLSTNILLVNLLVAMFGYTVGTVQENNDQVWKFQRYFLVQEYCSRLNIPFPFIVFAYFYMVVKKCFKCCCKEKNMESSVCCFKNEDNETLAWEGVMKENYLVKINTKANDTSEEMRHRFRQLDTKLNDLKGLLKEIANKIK

In the case of `CCOC(=O)[C@@H](C)NC(=O)[C@@H]1C[C@H](C)CC[C@H]1C(C)C` [(R)-2-[((1R,2S,5R)-2-isopropyl-5-methyl-cyclohexanecarbonyl)-amino]-propionic acid ethyl ester], the Peak expiratory flow in the series on asthma (1 to 3 mg, improved from 320 L/min) came out at 370 L/min. Moreover, the “relief of throat irritation, desire to cough and airway discomfort” value in the series with asthma (asthmatic) is “rapid relief”.
With `COC(=O)[C@@H](C)NC(=O)[C@@H]1C[C@H](C)CC[C@H]1C(C)C` [D-Ala Me Ester, (R)-2-[((1R,2S,5R)-2-isopropyl-5-methyl-cyclohexanecarbonyl)-amino]-propionic acid methyl ester], the “Duration of Skin Cooling” value in the series with skin above the upper lip (40 mM (1% wt/vol) ointment, skin above upper lip) turned out to be 1.9 h. In addition, in the series on skin above the upper lip (skin above upper lip), the “Duration of Action On-Off (minutes): On (onset)” value was found to be 1 min, the “Duration of Action On-Off (minutes): duration (offset minus onset)” value worked out at 114 min and the “Duration of Action On-Off (minutes): Off (offset)” value was found to be 115 min. Besides, the “refreshing cooling and absence of skin irritation or eye irritation (“perfect cool”)” value in the series with skin above the upper lip (after facial skin or periorbital applications) is listed as “D-Ala Me Ester (*)”. In the series with oral cavity, the “duration of cooling sensations on the tongue” value is recorded as “about 30 minutes”. For the same compound, the “duration of pleasant cooling sensations, 0.1% towelette” value in the series with face (0.1% wt/vol in 10% propylene-glycol/90% water on napkin, face) is “about 10 minute”. The eye irritation result with face (0.1 or 0.5% towelette) is “No eye irritation”. Besides, the “duration of pleasant cooling sensations, 0.5% towelette” value with face (0.5% wt/vol in 10% propylene-glycol/90% water on napkin, face) is recorded as “about 60 minutes”. Besides, the “duration of alerting effect” value in the series on periorbital area (1% in Aquaphor, periorbital) is reported as “about one”. Moreover, in the series on periorbital area (setting [3]), the “duration of coolness on the skin (average)” value is 30 min and the “onset of coolness on the skin” value is at most 1 min. Further, the “irritation of skin and eye surfaces” value in the series with periorbital area (periorbital application) is listed as “No irritation of the eye surfaces”. Moreover, in series [1], the “duration of coolness on irritated skin (average)” value was determined as 30 min and the “time until discomfort of the irritated skin was abated” value was “five”. For the same compound, the “onset of sensations of coolness on irritated skin” value in series [1] (one subject) was at most 5 min.
As to `COc1ccc(NC(=O)C2CC(C)CCC2C(C)C)cc1` (stereo not drawn) [WS-12, N-p-methoxyphenyl-p-menthane-carboxamide, reference compound], on TRP-M8, the “potency at TRP-M8” value is “more potent at TRP-M8 than WS-5; also recorded: potent”. For the same compound, the logP in [2] stood at 5.3. Besides, in the series with skin above the upper lip (skin above upper lip), the “Duration of Action On-Off (minutes): On (onset)” value was found to be 13 min, the “Duration of Action On-Off (minutes): duration (offset minus onset)” value amounted to 25 min and the “Duration of Action On-Off (minutes): Off (offset)” value is 38 min. Further, in the series on tongue, the Threshold tongue was determined as 0.2 µg.
